Results from US12144815B2, “Use of aprepitant for treating Alzheimer's disease” (Hoth Therapeutics, Inc., priority 2021, dated 2024).

What was measured:
APP/PS1 mice = assay: Morris Water Maze test of spatial learning and memory; type: in vivo; conditions: 3 weeks oral treatment
Procedure: A Morris Water Maze test was used to evaluate spatial learning and memory after 3 weeks treatment with oral aprepitant or vehicle in APP/PS1 or wild type (WT) mice.
Animal Model. All experiment protocols using animals were performed ethically and in accordance with the guidelines established by the Institutional Animal Care and Use Committee at Washington University. APPswe/PS1DE9 hemizygous mice (Jackson Laboratory, RRID: MMRRC_034829.JAX) (Savonenko et al., 2003) were bred to wild type C3H/B6 mice and aged the APP/PS1^+/− offspring to 2-3.5 months for microdialysis experiments or aged to 9 months for behavioral testing. Males and females were included in each group; aprepitant treated mice n=20 (11 males, 9 females), Vehicle treated mice […] for microdialysis experiments. […]
Morris water maze (MWM) test. […] The PVC escape platform measured 11.5 cm in diameter. A digital video camera connected to a PC computer and the computer software program ANY-maze (Stoelting Co., Wood Dale, IL) tracked the swimming pathway of the mouse to the escape platform and quantified path length, latency to find escape platform, and swimming speeds. […]

[1] = test system: brain interstitial fluid (ISF) Aβ; assay: In vivo microdialysis of brain interstitial fluid (ISF) Aβ with Aβ sandwich ELISA; conditions: APP/PS1+/− mice, 40 mg/kg oral gavage
Procedure: In vivo microdialysis was utilized to measure the basal concentration of ISF Aβ in each mouse, followed by administration via oral gavage of 40 mg/kg dose of aprepitant or vehicle (corn oil) and continued measurement of Aβ over 24 hours.
Three-four month old APP/PS1^+/− mice were implanted with unilateral guide cannula above the hippocampus followed by insertion of microdialysis probes (see, for example, In Vivo AβMicrodialysis of Example 7). Each animal recovered for 3 days between guide cannula implantation and start of microdialysis. Littermate females and males were separated randomly into each treatment group. Throughout each microdialysis study, mice were housed in special RaTurn caging systems to provide freedom of movement and ad lib food and water while the microdialysis equipment was attached. […]
Following drug administration, ISF was measured every 60 minutes for 24 hours. […] ISF APβ was immediately measured at the end of each study by Aβ sandwich ELISA. […]
In Vivo Aβ Microdialysis. […] Samples were collected every 60 or 90 minutes into a refrigerated fraction collector (Univentor Limited) in polypropylene tubes and assessed for […] by sandwich ELISA. […]
Aβ Sandwich ELISA. ISF Aβx-40 levels were measured using sandwich ELISAs as described (Hettinger et al., 2018). […]

Structure (SMILES): C[C@H](O[C@@H]1OCCN(Cc2n[nH]c(=O)[nH]2)[C@H]1c1ccc(F)cc1)c1cc(C(F)(F)F)cc(C(F)(F)F)c1 [aprepitant]
- spatial memory for the platform location (time spent in the target quadrant, probe trial) (APP/PS1 mice; compared to vehicle-treated APP/PS1 mice, preliminary data): trend for improved memory
- spatial learning (path length, learning trials) (APP/PS1 mice; n=4 vs vehicle n=3, preliminary data, trend): improved spatial learning
- average ISF Aβ levels post gavage compared to vehicle treated mice ([1]; Bonferroni post hoc, p=0.0002): significantly lower
- ISF Aβ levels, change from baseline (within group) ([1]; hippocampal ISF measured over 24 hours, p <0.0001, vehicle (corn oil) mice did not decrease (p=0.4003)): significantly decreased from their baseline
